The values that follow are results of earlier work, collected in patent US20110003837A1, “MODIFIED RELEASE FORMULATIONS OF HMG COA REDUCTASE INHIBITORS” (LUPIN LIMITED, priority 2008, published 2011).

For series [1] the following is noted: 40 mg daily, clinical trials.
The next series deals with T1, HMG-CoA reductase (Homo sapiens, UniProt P04035).
T1 sequence (P04035 1-888): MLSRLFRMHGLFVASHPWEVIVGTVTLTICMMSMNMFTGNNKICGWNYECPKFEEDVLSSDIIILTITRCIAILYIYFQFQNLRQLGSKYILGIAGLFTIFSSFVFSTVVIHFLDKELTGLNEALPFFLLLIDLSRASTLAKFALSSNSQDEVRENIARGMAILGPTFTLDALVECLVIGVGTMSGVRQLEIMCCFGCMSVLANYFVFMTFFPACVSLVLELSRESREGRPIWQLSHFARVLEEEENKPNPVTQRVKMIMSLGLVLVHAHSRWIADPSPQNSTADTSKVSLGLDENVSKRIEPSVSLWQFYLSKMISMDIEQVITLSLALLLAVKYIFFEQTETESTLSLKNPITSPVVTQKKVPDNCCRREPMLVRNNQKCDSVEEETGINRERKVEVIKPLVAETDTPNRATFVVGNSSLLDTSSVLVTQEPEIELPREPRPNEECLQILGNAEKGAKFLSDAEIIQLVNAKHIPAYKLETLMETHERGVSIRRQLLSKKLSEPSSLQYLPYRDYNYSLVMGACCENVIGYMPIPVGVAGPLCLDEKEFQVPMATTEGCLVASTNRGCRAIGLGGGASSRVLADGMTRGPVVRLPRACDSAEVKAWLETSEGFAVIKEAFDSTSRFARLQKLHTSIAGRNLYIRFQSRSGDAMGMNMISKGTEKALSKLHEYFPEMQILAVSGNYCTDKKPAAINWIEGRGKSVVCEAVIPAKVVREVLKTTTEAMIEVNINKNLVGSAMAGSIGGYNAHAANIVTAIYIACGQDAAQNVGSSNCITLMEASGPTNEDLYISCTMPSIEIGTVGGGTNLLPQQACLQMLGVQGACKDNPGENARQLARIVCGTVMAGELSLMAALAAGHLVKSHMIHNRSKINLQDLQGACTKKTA

The conditions of series [2]: in vivo.
The conditions of series [3]: U.S. Pharmacopeia (2002).
The conditions of series [4]: in words.

Where two headings read alike, the source gives them in different places.

`CC(C)c1nc(N(C)S(C)(=O)=O)nc(-c2ccc(F)cc2)c1/C=C/[C@@H](O)C[C@@H](O)CC(=O)O` (single isomer, unassigned) [rosuvastatin]: the LDL-C reduction entry in series [1] was “up to 63%”. Also, the “Share of the inhibitory activity of rosuvastatin due to the parent compound” value at HMG-CoA reductase is on record as 90%. Further, in series [2], the “Absorbed dose extracted by the liver” value is reported as “up to 90%”, the “Clearance through biliary excretion” value is 90%, the “Elimination half-life (t½)” value was 20 h and the “Excreted in the urine” value is 10%. Further, the “Patients with drug levels greater than 50 ng/ml” value (40 mg) is reported as 2%. In addition, under “80 mg”, the “Patients with drug levels greater than 50 ng/ml” value is given as 33%. For the same compound, the “Plasma level at which muscle and or renal toxicity developed” value (plasma) is reported as “more than 50 ng/ml”. Moreover, the Solubility class entry in series [3] is given as “sparingly soluble”. Also, the “Stability in acidic environments like that found in the stomach” value in series [4] was “stable in acidic environments”.
